Laboratory results reported in patent US6111103A, “Diresorcinyl-alkoxy- and -aryloxy-s-triazines” (Ciba Specialty Chemicals Corporation, priority 1998, dated 2000).

Columns and labels:
[1] = UV/Vis absorption (λmax, ε); type: physicochemical; design: ε at λmax: unit not given beside the values
[2] = Solubility in ethanol (25° C.); type: physicochemical

Row | UV/Vis λmax ([1]; Dioxan) | ε at λmax ([1]; Dioxan) | UV/Vis λmax ([1]; EtOH) | ε at λmax ([1]; EtOH) | Solubility in ethanol [2] | SMILES
1 | 347 nm | 36219 | – | – | – | CCCCCCCCCCCCC(CCCCCCCCCC)COc1nc(-c2ccc(OC)cc2O)nc(-c2ccc(OC)cc2O)n1 (stereo not drawn) [compound 110]
2 | – | – | 348 nm | 34123 | – | CCCCCCCCC(CCCCCC)COc1nc(-c2ccc(OC)cc2O)nc(-c2ccc(OC)cc2O)n1 (stereo not drawn) [compound 111]
3 | – | – | 350 nm | 34482 | – | CCCCCCCCCCCCC(CCCCCCCCCC)COc1nc(-c2ccc(O)cc2O)nc(-c2ccc(O)cc2O)n1 (stereo not drawn) [compound 101]
4 | – | – | 350 nm | 39177 | 1.50% | CCCCC(CC)COc1nc(-c2ccc(O)cc2O)nc(-c2ccc(O)cc2O)n1 (stereo not drawn) [compound 102]
5 | 347 nm | 37680 | – | – | – | COc1ccc(-c2nc(OC)nc(-c3ccc(OC)cc3O)n2)c(O)c1 [compound 112]
6 | – | – | 350 nm | 36949 | 0.08% | COc1nc(-c2ccc(O)cc2O)nc(-c2ccc(O)cc2O)n1 [compound 107]
7 | – | – | 350 nm | 36761 | 0.17% | CCOc1nc(-c2ccc(O)cc2O)nc(-c2ccc(O)cc2O)n1 [compound 108]
8 | – | – | 351 nm | 36148 | – | CCCCCCCCC(CCCCCC)COc1nc(-c2ccc(O)cc2O)nc(-c2ccc(O)cc2O)n1 (stereo not drawn) [compound 104]
9 | – | – | 350 nm | 31662 | – | CCCCCCCCCCCCCCCCCCOc1nc(-c2ccc(O)cc2O)nc(-c2ccc(O)cc2O)n1 [compound 105]
